≈ marks a conversion by molar mass, not a printed value. Like-named read-outs stand apart in the source and are kept apart here. Numbered stars: 1 amine (or outer) side, 2 acyl side, 3 side chain; on linkers, the order of the positions; unused ones are H or OH. Square brackets hold non-standard residues; d marks the D form. Peptide text beside a SMILES is read from it. * marks the point of attachment. N(1S-cyclohexylethyl)Gly = C[C@H](NCC(=O)O)C1CCCCC1; N(2-thienylmethyl)Gly = O=C(O)CNCc1cccs1; NCyclohexylmethylGly = O=C(O)CNCC1CCCCC1; N(tridecyl)Gly = CCCCCCCCCCCCCNCC(=O)O; N(4-F-Bzl)Gly = O=C(O)CNCc1ccc(F)cc1; X1 = CC(c1ccccc1)N(CC(=O)[*:2])[*:1]; Gly(N-2-aminoethyl) = NCCNCC(=O)O; Myristoyl = CCCCCCCCCCCCCC(=O)*; NFurfurylGly = O=C(O)CNCc1ccco1; Gly(N(CH2)3NH2) = NCCCNCC(=O)O; Nphe = O=C(O)CNCc1ccccc1; NPrGly = CCCNCC(=O)O; Nlys = NCCCCNCC(=O)O
Legend:
[1] = system: C. neoformans; assay type: cell-based, Cryptococcus neoformans; details: 72 h
Source text: (§1) This screening led to the discovery of RMG9-11 (FIG. 2C). The minimum inhibitory concentration (MIC) of resynthesized RMG9-11 was initially determined against C. albicans, C. neoformans, and the ESKAPE bacteria via CSLI guidelines (CLSI. Methods for Dilution Antimicrobial Susceptibility Tests for Bacteria That Grow Aerobically, 11th Edition. Clinical and Laboratory Standards Institute (2018); CLSI. Reference method for broth dilution antifungal susceptibility testing of yeasts; approved standard-third edition; CLSI document M27-A3. Clinical and Laboratory Standards Institute (2008)). […] C. albicans clinical isolates include a reference strain (M1), fluconazole susceptible strains (M4 and M6), and fluconazole resistant strains (M2, M3, M5, and M7). ATCC 64124 is multidrug resistant C. albicans strain that is resistant to amphotericin B, fluconazole, caspofungin, and flucytosine. All MICs were performed under CSLI guidelines in triplicate on at least three different days.
(§2) The minimum inhibitory concentration (MIC) of peptoids against fungal pathogens C. albicans and C. neoformans was determined following CLSI guidelines (Reference method for broth dilution antifungal susceptibility testing of yeasts; approved standard-third edition; CLSI document M27-A3.” CLSI. 2008.). Colonies were transferred from a streaked YPD plate to 0.85% saline to reach an OD530 between 0.18 and 0.25. This inoculant was diluted 1:100 into RPMI-MOPS and then further diluted 1:20 into RPMI-MOPS. 198 μL of inoculant was seeded into each well of a 96 well black-walled plate. 2-fold serial dilutions of 100× peptoid solutions were prepared in water and 2 μL of peptoid were added to each well in triplicate. […] MIC was defined as the lowest concentration of compound preventing fungal growth. This assay was repeated 3 times on separate days with each compound.

[2] = in vitro; assay type: cell-based; details: human, HepG2 hepatocellular carcinoma cells
Procedure: (§3) The mammalian cell lines that were tested (HepG2, 3T3, and HaCat) were incubated with RMG9-11 for 72 hours and cell viability was determined via mitochondrial activity using an MTT reduction assay where viable cells reduce MTT to formazan. Toxicity is reported as the concentration of the peptoid that results in a 50% reduction in viable cells, termed toxicity dose 50% or TD50. […] SR is defined as the TD50 divided by MIC and provides a measure of the therapeutic window for a compound. Typically for most lead compounds that would continue through development and optimization, a SR of 10 is preferred while an SR of 100 is more desirable for a compound moving into preclinical animal model evaluation.
(§4) Hepatocellular carcinoma (HepG2), mouse fibroblast (3T3), and human keratinocyte (HaCat) cells were cultured in Dulbeco modified eagle media (DMEM) containing 10% fetal bovine serum (FBS) and 1% penicillin, streptomycin, and glutamine (PSG) at 37° C. and 5% CO2. Cells were collected and adjusted to […] to 4×10^5 cells/mL in phenol-red free DMEM and plated (100 μL) 96 well plates. 2-fold serial dilutions of 10× peptoid (11.1 μL) were added to each well in triplicate. Water (vehicle) was used as a negative control. Plates were incubated at 37° C. in 5% CO2 for 72 hours. Thiazolyl blue tetrazolium bromide (MTT) was added to each well (5 mg/mL; 20 μL) and incubated for 3 hours. Media was removed, DMSO (100 μL) was added, and plates were incubated at 37° C. for 10 minutes. Plates were read on a SPECTRAMAX M5 plate reader (Abs. 570 nm). The concentration of compound resulting in a 50% reduction in growth compared to control (toxicity dose 50%; TD50) was determined using GRAFIT. This procedure was repeated three times on separate days.

[3] = Percent acetonitrile at time of elution from RP-HPLC (hydrophobicity); assay type: physicochemical
Procedure: Round 1 of the iterative SAR explored two miscellaneous derivatives along with derivatives that explored substitutions in position 3 (R^2; FIG. 6). Structures were confirmed by ESI-MS and hydrophobicity was determined by the percent acetonitrile at time of elution during RP-HPLC purification and using MarvinSketch to calculate the distribution coefficient at pH 7.4 (Table 5). Only one derivative of position 1 (group T of Formula 1) was explored, substituting a 14-carbon fatty acid (myristic acid) tail in place of the tridecyl tail (911-M1). This was tested because this fatty acid was previously shown to improve activity with C. albicans while reducing toxicity (Green R M, Bicker R. L. Evaluation of peptoid mimics of short, lipophilic peptide antimicrobials. Int J Antimicrob Agents. 2020; 56(2):106048. doi:10.1016/j.ijantimicag.2020.106048). The second miscellaneous derivative tested substituting the propyl group (Nnva) in position 2 (R^1) with a cationic group in an effort to reduce toxicity without effecting antifungal activity (911-M2). […]

[4] = system: C. albicans; assay type: cell-based, Candida albicans; details: 24 h
Source text: as §1, §2

[5] = system: HepG2 liver cells; assay: in vitro; assay type: cell-based
Procedure: as §3, §4

SMILES | MIC C. neoformans [1] | MIC C. neoformans ([1]; listed as 911-10) | CC50 at 72 h [2] | % ACN [3] | MIC C. albicans [4] | HepG2 TD50 [5] | cytotoxicity compared to RMG9-11 [5] | toxicity compared to 911-M1 [5]
CCCCCCCCCCCCCNCC(=O)N(CCC)CC(=O)N(CC(=O)N(CCCCN)CC(=O)N(CC(=O)N(CC(=O)N(CCCN)CC(N)=O)Cc1ccccc1)Cc1ccco1)CC1CCCCC1 [Compound 911-M10] (H-[N(tridecyl)Gly][NPrGly][NCyclohexylmethylGly][Nlys][NFurfurylGly][Nphe][Gly(N(CH2)3NH2)]-NH2; N-terminus assumed) | 0.78 to 1.56 µg/mL | sub-one | 97.8 ± 18.3 µg/mL (≈ 94.5 µM) | 72.3% | 6.25 µg/mL (≈ 6.04 µM) | – | – | –
CCCCCCCCCCCCCC(=O)NCC(=O)N(CCC)CC(=O)N(CC(=O)N(CCCCN)CC(=O)N(CC(=O)N(CC(=O)N(CCCN)CC(N)=O)Cc1ccccc1)Cc1ccco1)C(C)c1ccccc1 (stereo not drawn) [Compound 911-M1] (Myristoyl-G[NPrGly][X1][Nlys][NFurfurylGly][Nphe][Gly(N(CH2)3NH2)]-NH2) | 3.13 µg/mL (≈ 2.92 µM) | – | 144 ± 22.6 µg/mL (≈ 135 µM) | – | 3.13 to 6.25 µg/mL | 144.5 ± 22.6 µg/mL | decreased cytotoxicity | –
CCCCCCCCCCCCCC(=O)NCC(=O)N(CCC)CC(=O)N(CC(=O)N(CCCCN)CC(=O)N(CC(=O)N(CC(=O)N(CCCN)CC(N)=O)Cc1ccco1)Cc1ccco1)C(C)c1ccccc1 (stereo not drawn) [Compound 911-M18] (Myristoyl-G[NPrGly][X1][Nlys][NFurfurylGly][NFurfurylGly][Gly(N(CH2)3NH2)]-NH2) | 6.25 µg/mL (≈ 5.89 µM) | – | 152 ± 8.04 µg/mL (≈ 143 µM) | – | 6.25 µg/mL (≈ 5.89 µM) | 151.96 ± 8.04 µg/mL | – | slightly though not significantly better
CCCCCCCCCCCCCNCC(=O)N(CCN)CC(=O)N(CC(=O)N(CCCCN)CC(=O)N(CC(=O)N(CC(=O)N(CCCN)CC(N)=O)Cc1ccccc1)Cc1ccco1)C(C)c1ccccc1 (stereo not drawn) [Compound 911-M2] (H-[N(tridecyl)Gly][Gly(N-2-aminoethyl)][X1][Nlys][NFurfurylGly][Nphe][Gly(N(CH2)3NH2)]-NH2) | 3.13 µg/mL (≈ 3 µM) | – | 177 ± 20.5 µg/mL (≈ 170 µM) | – | 6.25 to 12.5 µg/mL | – | dramatic decrease in cytotoxicity | –
CCCCCCCCCCCCCC(=O)NCC(=O)N(CCC)CC(=O)N(CC(=O)N(CCCCN)CC(=O)N(CC(=O)N(CC(=O)N(CCCN)CC(N)=O)Cc1ccc(F)cc1)Cc1ccco1)C(C)c1ccccc1 (stereo not drawn) [Compound 911-M19] (Myristoyl-G[NPrGly][X1][Nlys][NFurfurylGly][N(4-F-Bzl)Gly][Gly(N(CH2)3NH2)]-NH2) | 3.13 µg/mL (≈ 2.87 µM) | – | 106 ± 34.8 µg/mL (≈ 97.6 µM) | – | 6.25 µg/mL (≈ 5.74 µM) | – | – | –
CCCCCCCCCCCCCC(=O)NCC(=O)N(CCC)CC(=O)N(CC(=O)N(CCCCN)CC(=O)N(CC(=O)N(CC(=O)N(CCCN)CC(N)=O)Cc1cccs1)Cc1ccco1)C(C)c1ccccc1 (stereo not drawn) [Compound 911-M21] (Myristoyl-G[NPrGly][X1][Nlys][NFurfurylGly][N(2-thienylmethyl)Gly][Gly(N(CH2)3NH2)]-NH2) | 3.13 to 6.25 µg/mL | – | 135 ± 52.1 µg/mL (≈ 125 µM) | – | 6.25 µg/mL (≈ 5.8 µM) | – | – | –
CCCCCCCCCCCCCNCC(=O)N(CCC)CC(=O)N(CC(=O)N(CCCCN)CC(=O)N(CC(=O)N(CC(=O)N(CCCN)CC(N)=O)Cc1ccccc1)Cc1ccco1)Cc1ccc(F)cc1 [Compound 911-M4] (H-[N(tridecyl)Gly][NPrGly][N(4-F-Bzl)Gly][Nlys][NFurfurylGly][Nphe][Gly(N(CH2)3NH2)]-NH2) | 1.56 µg/mL (≈ 1.49 µM) | – | 120 ± 36.9 µg/mL (≈ 114 µM) | – | 6.25 µg/mL (≈ 5.97 µM) | – | – | –
CCCCCCCCCCCCCC(=O)NCC(=O)N(CCC)CC(=O)N(CC(=O)N(CCCCN)CC(=O)N(CC(=O)N(CC(=O)N(CCCN)CC(N)=O)[C@@H](C)C1CCCCC1)Cc1ccco1)C(C)c1ccccc1 (stereo partly drawn) [Compound 911-M17] (Myristoyl-G[NPrGly][X1][Nlys][NFurfurylGly][N(1S-cyclohexylethyl)Gly][Gly(N(CH2)3NH2)]-NH2) | 3.13 to 6.25 µg/mL | – | 81.6 ± 5.97 µg/mL (≈ 74.8 µM) | – | 6.25 µg/mL (≈ 5.73 µM) | – | – | markedly more toxic
CCCCCCCCCCCCCC(=O)NCC(=O)N(CCC)CC(=O)N(CC(=O)N(CCCCN)CC(=O)N(CC(=O)N(CC(=O)N(CCCN)CC(N)=O)C(C)c1ccccc1)Cc1ccco1)C(C)c1ccccc1 (stereo not drawn) [Compound 911-M22] (Myristoyl-G[NPrGly][X1][Nlys][NFurfurylGly][X1][Gly(N(CH2)3NH2)]-NH2) | 3.13 µg/mL (≈ 2.88 µM) | – | 113 ± 41.9 µg/mL (≈ 104 µM) | – | 6.25 µg/mL (≈ 5.76 µM) | – | – | –
CCCCCCCCCCCCCC(=O)NCC(=O)N(CCC)CC(=O)N(CC(=O)N(CCCCN)CC(=O)N(CC(=O)N(CC(=O)N(CCCN)CC(N)=O)CC1CCCCC1)Cc1ccco1)C(C)c1ccccc1 (stereo not drawn) [Compound 911-M20] (Myristoyl-G[NPrGly][X1][Nlys][NFurfurylGly][NCyclohexylmethylGly][Gly(N(CH2)3NH2)]-NH2) | 3.13 µg/mL (≈ 2.9 µM) | – | 79.6 ± 5.12 µg/mL (≈ 73.9 µM) | – | 6.25 µg/mL (≈ 5.8 µM) | – | – | markedly more toxic
CCCCCCCCCCCCCNCC(=O)N(CCC)CC(=O)N(CC(=O)N(CCCCN)CC(=O)N(CC(=O)N(CC(=O)N(CCCN)CC(N)=O)Cc1ccccc1)Cc1ccco1)[C@@H](C)C1CCCCC1 [Compound 911-M11] (H-[N(tridecyl)Gly][NPrGly][N(1S-cyclohexylethyl)Gly][Nlys][NFurfurylGly][Nphe][Gly(N(CH2)3NH2)]-NH2) | 1.56 µg/mL (≈ 1.49 µM) | – | 82.5 ± 11.5 µg/mL (≈ 78.6 µM) | – | 3.13 to 6.25 µg/mL | – | – | –

Reference: patent publication US20240391889A1, “ANTIMICROBIAL COMPOUNDS AND THE METHODS OF USE” (priority 2021, published 2024)
